Source: patent publication US20260027175A1, “COMPOSITIONS AND METHODS FOR TREATING A COGNITIVE DEFICIT” (priority 2022, published 2026)

Tests used:
c-Jun (substrate of JNK) = assay: Phospho c-Jun immunofluorescence, high content imaging; assay type: cell-based; conditions: reference treatment: 1 μM anisomycin 10 μg/mL, 30 min
Experimental: SACC was received as an aqueous stock solution. The different solutions were created by performing cascade dilutions in the culture medium.
Cells were seeded at 12 10^3 cells/well in 96 well plates and cultured for 24 h. Subsequently, cells were exposed to the different tested conditions (reference treatment: 1 μM anisomycin 10 μg/mL, 30 min). At the end of the treatment, the cells were processed for immunofluorescence with a specific antibody against the phosphorylated form of c-Jun. The fluorescent immune-staining was subsequently imaged by high content imaging. Single cell analysis of the phospho c-Jun immune-staining was performed.
The pharmacological modulators that decreased the cytotoxic effects of 1% SACC did it on the 1% were maximally effective at 50 h treatment. Therefore, the effect of SACC was studied after 50 h treatment with 0.1%; 0.3% and 1% SACC on phosphorylation level of the c-Jun (substrate of JNK).

NF-κβ p65 subunit = assay: Quantification of NF-KB p65 unit (ActivELISA) in hippocampus of ICV-OKA rats; assay type: in vivo, Wistar rats; conditions: ICV-OKA administered rats
Experimental: (§1) Intracerebroventricular injection of okadaic acid was performed according to the procedure of Kamat et al. (2010). Rats were anesthetized with thiopentone (Neon Laboratories, India, 45 mg/kg, i.p.). The scalp was shaved, cleaned, and cut to expose the skull. The head was positioned in a stereotaxic frame and a midline sagittal incision was made in the scalp. Burr holes were drilled in the skull on both sides over the lateral ventricles by using the following coordinates: 0.8 mm posterior to bregma; 1.5 mm lateral to sagittal suture and 3.6 mm beneath the surface of the brain (Paxinos et al., 1980). Okadaic acid (200 ng) was injected bilaterally making the total dose of 100 ng in each ventricle. […]
(§2) The experimental design is illustrated in FIG. 1. […] Memory impairment was assessed by Morris Water Maze on days 15th, 21st, 28th. […]
The NF-KB/p65 ActivELISA kit (Imgenex, USA) was used to measure NF-KB-free p65 in the nuclear fraction of different brain regions. […] The NF-KB ActivELISA is a sandwich ELISA in which free p65 was captured by anti-p65 antibody-coated plates and the amount of bound p65 was detected by adding a second anti-p65 antibody followed by alkaline phosphatase conjugated secondary antibody using colorimetric detection in an ELISA plate reader at 405 nm. The results were expressed as ng/mg of protein.

BDNF = assay: Quantification of brain derived neurotrophic factor (BDNF) in hippocampus of ICV-OKA rats; assay type: in vivo, Wistar rats; conditions: ICV-OKA rats compared to sham group
Experimental: Intracerebroventricular injection of okadaic acid was performed according to the procedure of Kamat et al. (2010). Rats were anesthetized with thiopentone (Neon Laboratories, India, 45 mg/kg, i.p.). The scalp was shaved, cleaned, and cut to expose the skull. The head was positioned in a stereotaxic frame and a midline sagittal incision was made in the scalp. Burr holes were drilled in the skull on both sides over the lateral ventricles by using the following coordinates: 0.8 mm posterior to bregma; 1.5 mm lateral to sagittal suture and 3.6 mm beneath the surface of the brain (Paxinos et al., 1980). Okadaic acid (200 ng) was injected bilaterally making the total dose of 100 ng in each ventricle. The concentration of okadaic acid in aCSF was adjusted so as to deliver 4 μl of the solution. Sham animals received ICV injection of the same volume of aCSF. The skin was sutured after injection followed by daily application of antiseptic powder (Neosporin). Postoperatively, the rats were fed with oral glucose and normal pellet diet for 4 days, followed by normal pellet diet alone.
as §2
The quantification of BDNF was done with the help and instructions provided by Millipore, USA quantikine rat BDNF immunoassay kit.

Phospho-Tau in neurons = assay: Okadaic acid induced Tau hyper-phosphorylation in primary cortical neurons (Phospho-Tau/MAP2 immunofluorescence); assay type: cell-based, rat
Experimental: The potential efficacy of the test compound (SAAC) against Alzheimer's disease was evaluated using an in vitro model in which Tau hyper-phosphorylation Is Induced by pharmacological treatment.
The test compound was tested in culture medium at […], and 10%. Positive control of reversion of hyperphosphorylation was […] at 3 mM.
Primary cortical cultures from E 19 rat embryos.
Phospho-Tau intensity in neurons and percentage of neurons with hyperphosphorylated Tau.
Cortical neurons from E 19 rat embryos were harvested and plated in 96 well plates. After 9 days in vitro, cells were treated with LiCI at 3 mM for 24 hours as a positive neuroprotective control or the test compound (SAAC) at 7 different concentrations. Another plate was pre-treated with the test compound (SAAC) at 7 different concentrations for 4 hours.
At the end of treatment durations, cells were treated with okadaic acid (OKA) for 3 hours. The cells were then fixed and processed for immunofluorescence analysis of Phospho-Tau (P-Tau) in neurons (Phospho-Tau labelling and neuronal labelling with MAP2 antibody).
After 9 days in vitro, neurons were treated with LiCI at 3 mM for 24 hours as a positive neuroprotective control (FIG. 5) or the test compound (SAAC) at 7 different concentrations (FIG. 7 & FIG. 8). At the end of treatment duration, cells were treated with okadaic acid (OKA) for 3 hours. After Phospho-Tau and MAP2 labelling, the signals were acquired and the mean intensity of Phospho-Tau staining in the neurons as well as the percentage of neurons with a high Phospho-Tau level was assessed.

ICV-OKA rats = assay: Cognitive performance in Morris water maze task, ICV-OKA rats; assay type: in vivo, Wistar rats; conditions: ICV injection 100 ng each ventricle, 15th day
Experimental: Adult male Wistar rats (200-230 g, 2 months old) were used.
Nuclear factor kappa-light-chain-enhancer of activated B cells (NF-KB) and BDNF ELISA kits were procured from Imegenex, San Diego, USA and Millipore, USA respectively. All other chemicals used for biochemical estimations were of analytical grade. SAAC was dissolved in double distilled water (DDW) while okadaic acid was dissolved in artificial cerebrospinal fluid (aCSF) (2.9 mM KCl, 147 mM NaCl, 1.7 mM CaCl2, 1.6 mM MgCl2, and 2.2 mM D-glucose).
as §1, with “1980).” for “1980). Okadaic acid (200 ng) was injected bilaterally making the total dose of 100 ng in each ventricle.”
as §2
The acquisition and retention of memory was evaluated by using Morris water maze (Morris et al., 1982; Tuzcu and Baydas, 2006). […]

Row | Compound | c-Jun phosphorylation (c-Jun (substrate of JNK)) | elevation of NF-κβ p65 subunit in hippocampus (NF-κβ p65 subunit) [%] | decrease in brain derived neurotrophic factors (BDNF) [%] | increase in the percentage of neurons with high Phospho-Tau levels (Phospho-Tau in neurons; 10 nM okadaic acid, 3 hours) [fold] | phosphorylation of Tau (Phospho-Tau in neurons; 10 nM okadaic acid, 4 h treatment experiment) | increase in the percentage of neurons with high Phospho-Tau levels (Phospho-Tau in neurons; 100 nM okadaic acid, 3 hours) [fold] | phosphorylation of the Tau protein (Phospho-Tau in neurons; okadaic acid 10 nM and 100 nM, 3 hours) | amount of phosphorylated tau in the axons and dendrites of the neurons (Phospho-Tau in neurons; okadaic acid treatment alone) | lower ability to find the platform and learn its location (ICV-OKA rats) [fold]
1 | COc1ccc(C[C@H]2NC[C@H](O)[C@H]2OC(C)=O)cc1 [Aniosomycin, anisomycin] | induced c-Jun phosphorylation in the total population of treated cells | – | – | – | – | – | – | – | –
2 | C=C1[C@@H](O)[C@@H]2O[C@]3(CC[C@H](/C=C/[C@@H](C)[C@@H]4CC(C)=C[C@@]5(O[C@H](C[C@@](C)(O)C(=O)O)CC[C@H]5O)O4)O3)CC[C@H]2O[C@@H]1[C@@H](O)C[C@H](C)[C@H]1O[C@@]2(CCCCO2)CC[C@H]1C [okadaic acid] | – | 105 | 40 | ~2 | not able to elicit any increase | ~3 | increased the phosphorylation of the Tau protein in a dose dependent way | greatly increased | 1.5
